{"source": "patent US12589085B2", "about": "“Use of diaminoguanidine derivative and feed composition thereof in preparation of veterinary drug” (priority 2019, dated 2026)", "key": {"[1]": {"test_system": "bone marrow cells of mice", "details": "cyclophosphamide 40 mg/kg intraperitoneal, n = 5", "method": "Experimental animals: 60 clean and healthy ICR mice have the average weight of 18-20 g, half female and half male, purchased from the Comparative Medicine Center of Yangzhou University. […]\nSpecimen preparation: 6 hours after the second administration of the test article, […] and 5 […] in each group were sacrificed by cervical dislocation. […] The fixed smear is stained with Giemsa application solution for 15-30 min, rinsed with distilled water, dried, and gets ready for inspection.\nThe film was read by double-blind method, the number of polychromatic red blood cells (PCE) of each mouse was recorded in each group, including the number of micronucleus PCE cells, and the number of mature red blood cells (RBC), and the like. The number of polychromatic red blood cells (PCE) was calculated, including the number of micronucleus PCE cells and the number of mature red blood cells (RBC) in each test group of male and female mice respectively, and the results were listed.\nThe experimental data is processed by SPSS 11.0 statistical software, and the analysis result is expressed as x±SD, and the incidence of micronucleus is statistically processed according to the X^2 test (α=0.05)."}, "sperm": {"test_system": "sperm", "details": "cyclophosphamide 40 mg/kg once a day 5 days", "method": "Experimental animals: 60 clean-grade healthy male ICR mice having the average weight of 18-20 g, purchased from the Comparative Medicine Center of Yangzhou University.\nReagents: Test agent, Compound 2, provided by Guangzhou Insighter Biotechnology Co., Ltd., was prepared into a suspension of the required concentration with 1.0% sodium carboxymethyl cellulose before use; the mutagenic positive control article of cyclophosphamide with the content of 99.00%; other reagents include sodium chloride, methanol, and eosin, all of analytical grade; self-prepared physiological saline; self-prepared eosin aqueous solution (2%).\nThe test article, Compound 2 was diluted with 1.0% sodium carboxymethyl cellulose as a solvent, and it was given by oral in different concentrations and the same volume. There is also a positive control and a negative (solvent) control. The cyclophosphamide was selected as the positive control (40 mg/kg).\nGrouping of experimental animals: 60 healthy male mice were individually weighed, labeled and numbered, and they were divided into 5 groups with 12 mice in each group using a completely random method. It was ensured that 10 animals in each group survive for sampling and film making after administration.\nAdministration: The administration method is carried out according to GB15193.7-2003. The test group, the negative control and the positive control are all given the test article by oral once a day for 5 consecutive days. The weight of the mouse for each administration was weighed, and the volume of the test article that each mouse should administer was calculated according to the requirements of the mouse 0.2 mL/10 g b.w.\nSampling and sample preparation: The mice were sacrificed by cervical dislocation on the Day 35 after the first administration, and sampling and film making were performed. 10 mice were sampled in each dose group. The abdominal cavity was cut, the epididymis on both sides were separated and extracted, and put in a petri dish containing 2 mL of normal saline; The mice were longitudinally cut with ophthalmological scissors for 2 times, the normal saline in it was pipetted with a straw for several times, and let stand for 3 min; the tissue fragments were filtered with a 4-layer of lens cleaning paper, 1 drop of the filtrate was drawn onto the glass slide, the slide was pushed with 4 slides per mouse; the slide in the air dried naturally, and fixed with methanol for 10 minutes, and dried; stained with 2% eosin for 1 h, the dye solution was gently washed off with water, and it was dried naturally before microscopic examination.\nData collation and analysis: The number of normal sperm, the number of abnormal sperm and the number of various types of abnormal sperm were read and counted in each dose group of mice. The sperm abnormality rate (%) of mice in each dose group and the percentage (%) of various types of abnormal sperm were calculated, and the standard deviation of the sperm abnormality rate of mice was also calculated in each dose group. Calculation as follows:\nThe sperm abnormality rate of mice in each dose group was statistically compared with the sperm abnormality rate of mice in the negative (solvent) control. The experimental data was processed by SPSS 11.0 statistical software, and the analysis results were expressed as x±SD, and the incidence of sperm abnormalities was statistically processed according to the X^2 (α=0.05).\nIf the dose of the test group has caused the animal to die, while the sperm abnormality has not increased, the result can be judged to be negative."}}, "note": "Where two headings read alike, the source gives them in different places."}
{"molecule": "O=P1(N(CCCl)CCCl)NCCCO1", "note": "(stereo not drawn) [Positive control, cyclophosphamide, reference compound]", "values": [{"measurement": "PCE micronucleus rate", "setting": "[1]; female mice", "value": "15.00 ± 2.42 ‰"}, {"measurement": "PCE micronucleus rate", "setting": "[1]; male mice", "value": "15.20 ± 2.37 ‰"}, {"measurement": "Total number of abnormal sperm", "setting": "sperm; Day 35, 10000 sperm", "value": 559}, {"measurement": "abnormal sperm: Amorphous", "setting": "sperm; Day 35, 10000 sperm", "value": 248}, {"measurement": "abnormal sperm: Banana shape", "setting": "sperm; Day 35, 10000 sperm", "value": 91}, {"measurement": "abnormal sperm: Double head", "setting": "sperm; Day 35, 10000 sperm", "value": 13}, {"measurement": "abnormal sperm: Double tail", "setting": "sperm; Day 35, 10000 sperm", "value": 25}, {"measurement": "abnormal sperm: Fat head", "setting": "sperm; Day 35, 10000 sperm", "value": 21}, {"measurement": "abnormal sperm: Fold tail", "setting": "sperm; Day 35, 10000 sperm", "value": 12}, {"measurement": "abnormal sperm: No hook", "setting": "sperm; Day 35, 10000 sperm", "value": 149}, {"measurement": "Number of Abnormal sperm (x ± SD)", "setting": "sperm; Day 35, n = 10", "value": 55.90}, {"measurement": "Sperm deformity", "setting": "sperm; Day 35, n = 10", "value": "5.26 ± 0.18", "unit": "%"}]}
